Results: patent publication US6569846B1, “Palladium-substituted bacteriochlorophyll derivatives and use thereof” (Yeda Research and Development Co. Ltd., priority 1998, dated 2003)

System: M2R mouse melanoma cells
Experiment: Phototoxicity on M2R cells (Example 10, [3H]-thymidine incorporation)
Assay type: cell-based
Settings: pigments dissolved directly in culture medium containing 10% serum
Method: The diluted pigments were added and the cells were incubated in the dark for four hours at 37° C. Prior to illumination, the cells were washed once and replaced with fresh culture medium. The plates were then illuminated from the bottom for 10 minutes at room temperature and placed in the culture incubator at 37° C. in the dark. […] The following control systems were used: Dark control—untreated cells kept in the dark; Light control—cells not treated with sensitizer that were illuminated; Dark toxicity—cells treated with pigment but kept in the dark.

With “Pd-Bacteriopheophorbide a ethyl ester [Pd-BPheid-ethyl ester, reference compound]” the “concentration up to which not active at all (highest concentration tested)” value was > 1 µM.
